Measured values from US20230278972A1, “SUBSTITUTED HALOALKYL SULFONANILIDE HERBICIDES” (FMC Corporation, priority 2020, published 2023).

How the values were obtained:
Format in all cases: in vivo
[1] = tested on: barnyardgrass (Echinochloa crus-galli); experiment: Test A preemergence, barnyardgrass; conditions: Preemergence; for Barnyardgrass plant response rating: visual injury on 0 to 100 scale (0 no effect, 100 complete control), approximately 10 days; for Plant response rating, Barnyardgrass: 0 to 100 scale (0 no effect, 100 complete control)
Description: (§1) Seeds of plant species selected from barnyardgrass (Echinochloa crus-galli), kochia (Bassia scoparia), ragweed (common ragweed, Ambrosia artemisiifolia), Ryegrass, Italian (Italian ryegrass, Lolium multiflorum), Foxtail, Giant (giant foxtail, Setaria faberi), and pigweed (Amaranthus retroflexus) were planted into a blend of loam soil and sand and treated preemergence with a directed soil spray using test chemicals formulated in a non-phytotoxic solvent mixture which included a surfactant. At the same time, plants selected from these weed species and also wheat (Triticum aestivum), corn (Zea mays), blackgrass (Alopecurus myosuroides), and galium (catchweed bedstraw, Galium aparine) were planted in pots containing the same blend of loam soil and sand and treated with postemergence applications of test chemicals formulated in the same manner. Plants ranged in height from 2 to 10 cm and were in the one- to two-leaf stage for the postemergence treatment. […] A dash (-) response means no test result.

kochia (Bassia scoparia) [2] = experiment: Test A preemergence, kochia; conditions: Preemergence; for Kochia plant response rating: visual injury on 0 to 100 scale (0 no effect, 100 complete control), approximately 10 days; for Plant response rating, Kochia: 0 to 100 scale (0 no effect, 100 complete control)
Description: as §1

[3] = tested on: ragweed (common ragweed, Ambrosia artemisiifolia); experiment: Test A preemergence, ragweed; conditions: Preemergence; for Ragweed plant response rating: visual injury on 0 to 100 scale (0 no effect, 100 complete control), approximately 10 days; for Plant response rating, Ragweed: 0 to 100 scale (0 no effect, 100 complete control)
Description: as §1

[4] = tested on: Ryegrass, Italian (Italian ryegrass, Lolium multiflorum); experiment: Test A preemergence, Ryegrass, Italian; conditions: Preemergence; for Ryegrass, Italian plant response rating: visual injury on 0 to 100 scale (0 no effect, 100 complete control), approximately 10 days; for Plant response rating, Ryegrass, Italian: 0 to 100 scale (0 no effect, 100 complete control)
Description: as §1

[5] = tested on: Foxtail, Giant (giant foxtail, Setaria faberi); experiment: Test A preemergence, Foxtail, Giant; conditions: Preemergence; for Foxtail, Giant plant response rating: visual injury on 0 to 100 scale (0 no effect, 100 complete control), approximately 10 days; for Plant response rating, Foxtail, Giant: 0 to 100 scale (0 no effect, 100 complete control)
Description: as §1

[6] = tested on: barnyardgrass (Echinochloa crus-galli); experiment: Test A postemergence, barnyardgrass; conditions: Postemergence, 0 to 100 scale (0 no effect, 100 complete control); for Barnyardgrass plant response rating: visual injury vs untreated controls after approx. 10 days
Description: as §1

kochia (Bassia scoparia) [7] = experiment: Test A postemergence, kochia; conditions: Postemergence, 0 to 100 scale (0 no effect, 100 complete control); for Kochia plant response rating: visual injury vs untreated controls after approx. 10 days
Description: as §1

[8] = tested on: ragweed (common ragweed, Ambrosia artemisiifolia); experiment: Test A postemergence, ragweed; conditions: Postemergence, 0 to 100 scale (0 no effect, 100 complete control); for Ragweed plant response rating: visual injury vs untreated controls after approx. 10 days
Description: as §1

[9] = tested on: Ryegrass, Italian (Italian ryegrass, Lolium multiflorum); experiment: Test A postemergence, Ryegrass, Italian; conditions: Postemergence, 0 to 100 scale (0 no effect, 100 complete control); for Ryegrass, Italian plant response rating: visual injury vs untreated controls after approx. 10 days
Description: as §1

[10] = tested on: Foxtail, Giant (giant foxtail, Setaria faberi); experiment: Test A postemergence, Foxtail, Giant; conditions: Postemergence, 0 to 100 scale (0 no effect, 100 complete control); for Foxtail, Giant plant response rating: visual injury vs untreated controls after approx. 10 days
Description: as §1

[11] = tested on: pigweed (Amaranthus retroflexus); experiment: Test A postemergence, pigweed; conditions: Postemergence, 0 to 100 scale (0 no effect, 100 complete control); for Pigweed plant response rating: visual injury vs untreated controls after approx. 10 days
Description: as §1

[12] = tested on: wheat (Triticum aestivum); experiment: Test A postemergence, wheat; conditions: Postemergence, 0 to 100 scale (0 no effect, 100 complete control); for Wheat plant response rating: visual injury vs untreated controls after approx. 10 days
Description: as §1

corn (Zea mays) = experiment: Test A postemergence, corn; conditions: Postemergence, 0 to 100 scale (0 no effect, 100 complete control); for Corn plant response rating: visual injury vs untreated controls after approx. 10 days
Description: as §1

[13] = tested on: blackgrass (Alopecurus myosuroides); experiment: Test A postemergence, blackgrass; conditions: Postemergence, 0 to 100 scale (0 no effect, 100 complete control); for Blackgrass plant response rating: visual injury vs untreated controls after approx. 10 days
Description: as §1

[14] = tested on: galium (catchweed bedstraw, Galium aparine); experiment: Test A postemergence, galium; conditions: Postemergence, 0 to 100 scale (0 no effect, 100 complete control); for Galium plant response rating: visual injury vs untreated controls after approx. 10 days
Description: as §1

[15] = 125 g ai/ha, visual injury, approx. 10 days
[16] = 500 g ai/ha, visual injury approx. 10 days

Cc1cc(C)c(C2=NOC3(C2)CC(C)OC(C)C3)cc1NS(=O)(=O)C(F)(F)F (single isomer, unassigned) [Compound 173]
Barnyardgrass plant response rating ([1]; 125 g ai/ha): 90 | Plant response rating, Barnyardgrass ([1]; 500 g ai/ha): 90 | Kochia plant response rating (kochia (Bassia scoparia) [2]; 125 g ai/ha): 60 | Plant response rating, Kochia (kochia (Bassia scoparia) [2]; 500 g ai/ha): 90 | Ragweed plant response rating ([3]; 125 g ai/ha): 90 | Plant response rating, Ragweed ([3]; 500 g ai/ha): 90 | Ryegrass, Italian plant response rating ([4]; 125 g ai/ha): 90 | Plant response rating, Ryegrass, Italian ([4]; 500 g ai/ha): 100 | Foxtail, Giant plant response rating ([5]; 125 g ai/ha): 100 | Plant response rating, Foxtail, Giant ([5]; 500 g ai/ha): 100 | Plant response rating, Barnyardgrass ([6]; 125 g ai/ha): 80 | Barnyardgrass plant response rating ([6]; 500 g ai/ha): 90 | Plant response rating, Kochia (kochia (Bassia scoparia) [7]; 125 g ai/ha): 50 | Kochia plant response rating (kochia (Bassia scoparia) [7]; 500 g ai/ha): 80 | Plant response rating, Ragweed ([8]; 125 g ai/ha): 80 | Ragweed plant response rating ([8]; 500 g ai/ha): 90 | Plant response rating, Ryegrass, Italian ([9]; 125 g ai/ha): 70 | Ryegrass, Italian plant response rating ([9]; 500 g ai/ha): 80 | Plant response rating, Foxtail, Giant ([10]; 125 g ai/ha): 90 | Foxtail, Giant plant response rating ([10]; 500 g ai/ha): 90 | Plant response rating, Pigweed ([11]; 125 g ai/ha): 80 | Pigweed plant response rating ([11]; 500 g ai/ha): 90 | Plant response rating, Wheat ([12]; 125 g ai/ha): 70 | Wheat plant response rating ([12]; 500 g ai/ha): 70 | Plant response rating, Corn (corn (Zea mays); 125 g ai/ha): 70 | Corn plant response rating (corn (Zea mays); 500 g ai/ha): 80 | Plant response rating, Blackgrass ([13]; 125 g ai/ha): 50 | Blackgrass plant response rating ([13]; 500 g ai/ha): 60 | Plant response rating, Galium ([14]; 125 g ai/ha): 90 | Galium plant response rating ([14]; 500 g ai/ha): 90

Cc1cc(C(F)(F)F)c(NS(=O)(=O)C(F)(F)F)cc1C(=O)N1CCCCC1 [Compound 165]
Barnyardgrass plant response rating ([1]; 125 g ai/ha): 20 | Plant response rating, Barnyardgrass ([1]; 500 g ai/ha): 30 | Kochia plant response rating (kochia (Bassia scoparia) [2]; 125 g ai/ha): 90 | Plant response rating, Kochia (kochia (Bassia scoparia) [2]; 500 g ai/ha): 100 | Ragweed plant response rating ([3]; 125 g ai/ha): 50 | Plant response rating, Ragweed ([3]; 500 g ai/ha): 100 | Ryegrass, Italian plant response rating ([4]; 125 g ai/ha): 50 | Plant response rating, Ryegrass, Italian ([4]; 500 g ai/ha): 70 | Foxtail, Giant plant response rating ([5]; 125 g ai/ha): 80 | Plant response rating, Foxtail, Giant ([5]; 500 g ai/ha): 90 | Plant response rating, Barnyardgrass ([6]; 125 g ai/ha): 0 | Barnyardgrass plant response rating ([6]; 500 g ai/ha): 30 | Plant response rating, Kochia (kochia (Bassia scoparia) [7]; 125 g ai/ha): 10 | Kochia plant response rating (kochia (Bassia scoparia) [7]; 500 g ai/ha): 60 | Plant response rating, Ragweed ([8]; 125 g ai/ha): 0 | Ragweed plant response rating ([8]; 500 g ai/ha): 60 | Plant response rating, Ryegrass, Italian ([9]; 125 g ai/ha): 0 | Ryegrass, Italian plant response rating ([9]; 500 g ai/ha): 30 | Plant response rating, Foxtail, Giant ([10]; 125 g ai/ha): 0 | Foxtail, Giant plant response rating ([10]; 500 g ai/ha): 0 | Plant response rating, Pigweed ([11]; 125 g ai/ha): 60 | Pigweed plant response rating ([11]; 500 g ai/ha): 90 | Plant response rating, Wheat ([12]; 125 g ai/ha): 0 | Wheat plant response rating ([12]; 500 g ai/ha): 0 | Plant response rating, Corn (corn (Zea mays); 125 g ai/ha): 0 | Corn plant response rating (corn (Zea mays); 500 g ai/ha): 0 | Plant response rating, Blackgrass ([13]; 125 g ai/ha): 0 | Blackgrass plant response rating ([13]; 500 g ai/ha): 10 | Plant response rating, Galium ([14]; 125 g ai/ha): 80 | Galium plant response rating ([14]; 500 g ai/ha): 90

Cc1cc(C)c(N(S(=O)(=O)C(F)(F)F)S(=O)(=O)C(F)(F)F)cc1N1CC2(CCCCC2)OC1=O [Compound 269]
Plant response rating, Barnyardgrass [1, 15]: 100 | Barnyardgrass plant response rating ([1]; 500 g ai/ha): 100 | Plant response rating, Kochia (kochia (Bassia scoparia) [2]; [15]): 70 | Kochia plant response rating (kochia (Bassia scoparia) [2]; 500 g ai/ha): 100 | Plant response rating, Ragweed [3, 15]: 80 | Ragweed plant response rating ([3]; 500 g ai/ha): 90 | Plant response rating, Ryegrass, Italian [4, 15]: 80 | Ryegrass, Italian plant response rating ([4]; 500 g ai/ha): 100 | Plant response rating, Foxtail, Giant [5, 15]: 100 | Foxtail, Giant plant response rating ([5]; 500 g ai/ha): 100 | Plant response rating, Barnyardgrass ([6]; 125 g ai/ha): 0 | Plant response rating, Barnyardgrass [6, 16]: 20 | Plant response rating, Kochia (kochia (Bassia scoparia) [7]; 125 g ai/ha): 30 | Plant response rating, Kochia (kochia (Bassia scoparia) [7]; [16]): 50 | Plant response rating, Ragweed ([8]; 125 g ai/ha): 40 | Plant response rating, Ragweed [8, 16]: 90 | Plant response rating, Ryegrass, Italian ([9]; 125 g ai/ha): 0 | Plant response rating, Ryegrass, Italian [9, 16]: 20 | Plant response rating, Foxtail, Giant ([10]; 125 g ai/ha): 0 | Plant response rating, Foxtail, Giant [10, 16]: 0 | Plant response rating, Pigweed ([11]; 125 g ai/ha): 30 | Plant response rating, Pigweed [11, 16]: 70 | Plant response rating, Wheat ([12]; 125 g ai/ha): 0 | Plant response rating, Wheat [12, 16]: 20 | Plant response rating, Corn (corn (Zea mays); 125 g ai/ha): 0 | Plant response rating, Corn (corn (Zea mays); [16]): 10 | Plant response rating, Blackgrass ([13]; 125 g ai/ha): 20 | Plant response rating, Blackgrass [13, 16]: 20 | Plant response rating, Galium ([14]; 125 g ai/ha): 70 | Plant response rating, Galium [14, 16]: 90
